Data set [1] deals with isolated rat bladder strips. The data set is described as follows: Inhibition of contractions in isolated rat bladder strips. The following applies: 15 mM KCl-enhanced contractile activity; for IC50: 0.5 h, 30 minute challenge; for inhibition at 30 µM: read-out: % Inhibition @ 30 μM (maximum percentage inhibition of contractile activity). The source says: Sprague-Dawley rats (150–200 g) were rendered unconscious by CO2 asphyxiation and then euthanized by cervical dislocation. The bladder was removed into warm (37 deg.C.) physiological salt solution (PSS) of the following composition (mM): NaCl, 118.4; KCl, 4.7; CaCl2, 2.5; […]; NaHCO3, 24.9; KH2PO4, 1.2; glucose, 11.1; EDTA, 0.023; gassed with 95% O2; […]; pH 7.4. The bladder was opened and then cut into strips 1–2 mm in width and 7–10 mm in length. The strips are subsequently suspended in a 10 mL tissue bath under an initial resting tension of 1.5 g. The strips were held in place by two surgical clips one of which is attached to a fixed hook while the other is attached to an isometric force transducer. […] The carbachol was then washed out and the tissue allowed to relax to its resting level of activity. Following a further 30 minute period of recovery an additional 15 mM KCl were introduced into the tissue bath. […] Following stabilization of this enhanced level of contractile activity, incremental increases in the concentration of test compound or vehicle were introduced into the tissue bath. Contractile activity was measured for each compound or vehicle concentration during the last minute of a 30 minute challenge.
The isometric force developed by the bladder strips was measured using a […] to elicit 50% inhibition of pre-drug contractile activity (IC50 concentration) and was calculated from this concentration-response curve.

`CC(N1C(=O)C(=O)N(c2ccc(C#N)cc2)C1=S)C(C)(C)C` (racemic) [Example 1, 4-[4,5-Dioxo-2-thioxo-3-(1,2,2-trimethyl-propyl)-imidazolidin-1-yl]-benzonitrile] came in with a melting point of 219.6 to 219.9 °C. Also, the IC50 in data set [1] was 3.3 ± 0.08 µM.

On to `CC(C)(C)CN1C(=O)C(=O)N(c2ccc(C#N)cc2)C1=S` [Example 2, 4-[3-(2,2-Dimethyl-propyl)-4,5-dioxo-2-thioxo-imidazolidin-1-yl]-benzonitrile], for which the melting point lay in the range of 128 to 129 °C. Besides, the IC50 in data set [1] came out at 3.4 ± 0.8 µM.

In turn, `CCC(C)(C)N1C(=O)C(=O)N(c2ccc(C#N)cc2)C1=S` [Example 3, 4-[3-(1,1-Dimethyl-propyl)-4,5-dioxo-2-thioxo-imidazolidin-1-yl]-benzonitrile] displayed a melting point of 173.1 to 174.3 °C. Further, the 50% inhibitory concentration (IC50) in data set [1] was determined as 25.7 ± 3.7 µM.

The compound `CC(C)(C)N1C(=O)C(=O)N(c2ccc(C#N)cc2)C1=S` [Example 4, 4-(3-tert-Butyl-4,5-dioxo-2-thioxo-imidazolidin-1-yl)-benzonitrile] had a melting point of 200.4 to 201.3 °C. Moreover, the IC50 in data set [1] was determined as 30 ± 5 µM.

`CCc1cc(C#N)ccc1N1C(=O)C(=O)N(C(C)(C)CC)C1=S` [Example 5, 4-[3-(1,1-Dimethyl-propyl)-4,5-dioxo-2-thioxo-imidazolidin-1-yl]-3-ethyl-benzonitrile]: the melting point fell in the range of 172.8 to 173.3 °C. Moreover, the 50% inhibitory concentration (IC50) in data set [1] was 28.9 ± 2.6 µM.

Take `C[C@@H](N1C(=O)C(=O)N(c2ccc(C#N)cc2)C1=S)C(C)(C)C` [Example 6, 4-[4,5-Dioxo-2-thioxo-3-((1R)-1,2,2-trimethyl-propyl)-imidazolidin-1-yl]-benzonitrile]: the melting point lay in the range of 197.6 to 197.8 °C. In data set [1], the 50% inhibitory concentration (IC50) stood at 4.2 ± 1.4 µM.

In turn, `CC(N1C(=O)C(=O)N(c2cccc(C#N)c2)C1=S)C(C)(C)C` (stereo not shown) [Example 7, 3-[4,5-Dioxo-2-thioxo-3-(1,2,2-trimethyl-propyl)-imidazolidin-1-yl]-benzonitrile] came in with a melting point of 168.1 to 168.7 °C. Also, the inhibition at 30 µM in data set [1] is 29.2%.

Consider `CC(N1C(=O)C(=O)N(c2ccc(Br)cc2)C1=S)C(C)(C)C` (stereo not shown) [Example 8, 1-(4-Bromo-phenyl)-2-thioxo-3-(1,2,2-trimethyl-propyl)-imidazolidine-4,5-dione], for which the melting point lay in the range of 207.1 to 207.9 °C. In data set [1], the inhibition at 30 µM was determined as 22.4% and the IC50 came out at 27.2 µM.

In the case of `CN(C)c1ccc(N2C(=O)C(=O)N(CC(C)(C)C)C2=S)cc1.Cl` [Example 9, 1-(4-Dimethylamino-phenyl)-3-(2,2-dimethyl-propyl)-2-thioxo-imidazolidine-4,5-dione Hydrochloride], the melting point is 244 to 246 °C. Further, the inhibition at 30 µM in data set [1] turned out to be 33.2%.

On to `CC(N1C(=O)C(=O)N(c2ccc(F)cc2F)C1=S)C(C)(C)C` (stereo not shown) [Example 10, 1-(2,4-Difluoro-phenyl)-2-thioxo-3-(1,2,2-trimethyl-propyl)-imidazolidine-4,5-dione], for which the melting point fell in the range of 155.2 to 156 °C. The inhibition at 30 µM in data set [1] was determined as 23.1%.

In turn, `CC(C)(C)CN1C(=O)C(=O)N(c2ccc(F)cc2F)C1=S` [Example 11, 1-(2,4-Difluoro-phenyl)-3-(2,2-dimethyl-propyl)-2-thioxo-imidazolidine-4,5-dione] came in with a melting point of 156.2 to 156.9 °C. The inhibition at 30 µM in data set [1] turned out to be 30.6%.

As to `CC(N1C(=O)C(=O)N(c2ccc(Cl)cc2)C1=S)C(C)(C)C` (stereo not shown) [Example 12, 1-(4-Chloro-phenyl)-2-thioxo-3-(1,2,2-trimethyl-propyl)-imidazolidine-4,5-dione], the melting point was 198.8 to 199.5 °C. Moreover, in data set [1], the inhibition at 30 µM was 24.3%.

`CC(N1C(=O)C(=O)N(c2ccc(C(C)(C)C)cc2)C1=S)C(C)(C)C` (stereo not shown) [Example 13, 1-(4-tert-Butyl-phenyl)-2-thioxo-3-(1,2,2-trimethyl-propyl)-imidazolidine-4,5-dione] yielded a melting point of 208.9 to 209.5 °C. Moreover, in data set [1], the inhibition at 30 µM amounted to 18.3%.

With `CC(C)(C)CN1C(=O)C(=O)N(c2ccc(F)cc2)C1=S` [Example 14, 1-(2,2-Dimethyl-propyl)-3-(4-fluoro-phenyl)-2-thioxo-imidazolidine-4,5-dione], the melting point lay within 165.2 to 166.3 °C. Besides, in data set [1], the inhibition at 30 µM stood at 15%.

The compound `CC(C)(C)CN1C(=O)C(=O)N(c2cccnc2)C1=S` [Example 15, 1-(2,2-Dimethyl-propyl)-3-pyridin-3-yl-2-thioxo-imidazolidine-4,5-dione] had a melting point of 111.4 to 112.8 °C. Besides, in data set [1], the IC50 is 3.6 ± 0.8 µM.

The values are drawn from patent publication US7115620B2, “1,3-disubstituted-2-thioxo-imidazolidine-4,5-diones as potassium channel openers” (Wyeth, priority 2001, dated 2006).
